Results from US10597388B2, “Pyridazinone herbicides” (FMC CORPORATION, priority 2014, dated 2020).

What was measured:
Assay in all cases: Test C greenhouse herbicide test, pre- and postemergence
Type in all cases: in vivo
[1] = test system: lambsquarters (Chenopodium album)
Outline: (§1)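 Visual 0–100 injury score (100 = complete control) taken against untreated controls after 13–15 d in greenhouse. Test chemicals, formulated in solvent plus surfactant, applied preemergence to seeds in loam–sand soil or postemergence to 1- to 4-leaf plants (2–18 cm).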

[2] = test system: foxtail, giant (giant foxtail, Setaria faberii)
Outline: as §1

[3] = test system: nutsedge, yellow (yellow nutsedge, Cyperus esculentus)
Outline: as §1

[4] = test system: waterhemp (common waterhemp, Amaranthus rudis)
Outline: as §1

[5] = test system: galium (catchweed bedstraw, Galium aparine)
Outline: as §1

[6] = test system: morningglory (Ipomoea coccinea)
Outline: as §1

soybean (Glycine max) = test system: soybean (Glycine max)
Outline: as §1

corn (Zea mays) = test system: corn (Zea mays)
Outline: as §1

[7] = test system: velvetleaf (Abutilon theophrasti)
Outline: as §1

[8] = test system: barnyardgrass (Echinochloa crus-galli)
Outline: as §1

[9] = test system: pigweed (Amaranthus retroflexus)
Outline: as §1

[10] = test system: ryegrass, Italian (Italian ryegrass, Lolium multiflorum)
Outline: as §1

[11] = test system: crabgrass, large (large crabgrass, Digitaria sanguinalis)
Outline: as §1

[12] = test system: wheat (winter wheat, Triticum aestivum)
Outline: as §1

[13] = test system: blackgrass (Alopecurus myosuroides)
Outline: as §1

[14] = Postemergence, 31 g ai/ha, 0 to 100 scale (0 no effect, 100 complete control)
[15] = Postemergence, 125 g ai/ha, scale 0 to 100, 0 is no effect, 100 is complete control
[16] = Postemergence, 250 g ai/ha, scale 0 to 100, 0 no effect, 100 complete control, 13 to 15 d
[17] = postemergence, 62 g ai/ha, scale 0 to 100, 0 no effect, 100 complete control
[18] = Postemergence, 31 g ai/ha, scale 0 to 100 (0 no effect, 100 complete control)
[19] = Postemergence, 62 g ai/ha, 0 to 100 scale (0 no effect, 100 complete control)
[20] = Preemergence, 31 g ai/ha, scale 0 to 100, 0 is no effect, 100 is complete control
[21] = Preemergence, 62 g ai/ha, scale 0 to 100, 0 is no effect, 100 is complete control
[22] = Preemergence, 125 g ai/ha, scale 0 to 100, 0 is no effect, 100 is complete control
[23] = Preemergence, 250 g ai/ha, scale 0 to 100, 0 no effect, 100 complete control
[24] = postemergence, 125 g ai/ha, scale 0 to 100, 0 no effect, 100 complete control

Compound: Cc1ccc2sc(C)c(-c3c(OC(=O)C(C)(C)C)c(C)nn(C)c3=O)c2c1 [Compound 26]
- Lambsquarters plant response rating [1, 14]: 75
- Plant response rating, Lambsquarters [1, 15]: 90
- Plant response rating, Lambsquarters [1, 16]: 98
- Lambsquarters plant response rating [1, 17]: 85
- Foxtail, Giant plant response rating [2, 14]: 15
- Plant response rating, Foxtail, Giant [2, 15]: 40
- Plant response rating, Foxtail, Giant [2, 16]: 65
- Foxtail, Giant plant response rating [2, 17]: 25
- Nutsedge, Yellow plant response rating [3, 14]: 5
- Plant response rating, Nutsedge, Yellow [3, 15]: 20
- Plant response rating, Nutsedge, Yellow [3, 16]: 25
- Nutsedge, Yellow plant response rating [3, 17]: 10
- Waterhemp plant response rating [4, 14]: 75
- Plant response rating, Waterhemp [4, 15]: 85
- Plant response rating, Waterhemp [4, 16]: 95
- Waterhemp plant response rating [4, 17]: 85
- Galium plant response rating [5, 14]: 90
- Plant response rating, Galium [5, 15]: 95
- Plant response rating, Galium [5, 16]: 95
- Galium plant response rating [5, 17]: 95
- Morningglory plant response rating [6, 14]: 98
- Plant response rating, Morningglory [6, 15]: 100
- Plant response rating, Morningglory [6, 16]: 100
- Morningglory plant response rating [6, 17]: 100
- Soybean plant response rating (soybean (Glycine max); [14]): 5
- Plant response rating, Soybean (soybean (Glycine max); [15]): 10
- Plant response rating, Soybean (soybean (Glycine max); [16]): 10
- Soybean plant response rating (soybean (Glycine max); [17]): 5
- Corn plant response rating (corn (Zea mays); [14]): 0
- Plant response rating, Corn (corn (Zea mays); [15]): 5
- Plant response rating, Corn (corn (Zea mays); [16]): 5
- Corn plant response rating (corn (Zea mays); [17]): 10
- Velvetleaf plant response rating [7, 14]: 5
- Plant response rating, Velvetleaf [7, 15]: 60
- Plant response rating, Velvetleaf [7, 16]: 70
- Velvetleaf plant response rating [7, 17]: 30
- Barnyardgrass plant response rating [8, 14]: 20
- Plant response rating, Barnyardgrass [8, 15]: 30
- Plant response rating, Barnyardgrass [8, 16]: 35
- Barnyardgrass plant response rating [8, 17]: 25
- Pigweed plant response rating [9, 14]: 75
- Plant response rating, Pigweed [9, 15]: 98
- Plant response rating, Pigweed [9, 16]: 95
- Pigweed plant response rating [9, 17]: 85
- Ryegrass, Italian plant response rating [10, 14]: 85
- Plant response rating, Ryegrass, Italian [10, 15]: 90
- Plant response rating, Ryegrass, Italian [10, 16]: 90
- Ryegrass, Italian plant response rating [10, 17]: 90
- Crabgrass, Large plant response rating [11, 14]: 5
- Plant response rating, Crabgrass, Large [11, 15]: 20
- Plant response rating, Crabgrass, Large [11, 16]: 25
- Crabgrass, Large plant response rating [11, 17]: 20
- Wheat plant response rating [12, 14]: 0
- Plant response rating, Wheat [12, 15]: 0
- Plant response rating, Wheat [12, 16]: 5
- Wheat plant response rating [12, 17]: 0
- Blackgrass plant response rating [13, 14]: 50
- Plant response rating, Blackgrass [13, 15]: 60
- Plant response rating, Blackgrass [13, 16]: 75
- Blackgrass plant response rating [13, 17]: 55

Compound: CC(=O)Oc1c(C)nn(C)c(=O)c1-c1c(C)sc2ccc(C(F)(F)F)cc12 [Compound 132]
- Plant response rating, Lambsquarters [1, 18]: 90
- Lambsquarters plant response rating [1, 19]: 90
- Plant response rating, Lambsquarters [1, 16]: 100
- Plant response rating, Lambsquarters [1, 20]: 50
- Plant response rating, Lambsquarters [1, 21]: 60
- Plant response rating, Lambsquarters [1, 22]: 85
- Lambsquarters plant response rating [1, 23]: 100
- Lambsquarters plant response rating [1, 24]: 100
- Plant response rating, Foxtail, Giant [2, 18]: 30
- Foxtail, Giant plant response rating [2, 19]: 40
- Plant response rating, Foxtail, Giant [2, 16]: 75
- Plant response rating, Foxtail, Giant [2, 20]: 40
- Plant response rating, Foxtail, Giant [2, 21]: 70
- Plant response rating, Foxtail, Giant [2, 22]: 85
- Foxtail, Giant plant response rating [2, 23]: 98
- Foxtail, Giant plant response rating [2, 24]: 60
- Plant response rating, Nutsedge, Yellow [3, 18]: 30
- Nutsedge, Yellow plant response rating [3, 19]: 55
- Plant response rating, Nutsedge, Yellow [3, 16]: 85
- Plant response rating, Nutsedge, Yellow [3, 20]: 10
- Plant response rating, Nutsedge, Yellow [3, 21]: 35
- Plant response rating, Nutsedge, Yellow [3, 22]: 45
- Nutsedge, Yellow plant response rating [3, 23]: 75
- Nutsedge, Yellow plant response rating [3, 24]: 75
- Plant response rating, Waterhemp [4, 18]: 40
- Waterhemp plant response rating [4, 19]: 60
- Plant response rating, Waterhemp [4, 16]: 75
- Plant response rating, Waterhemp [4, 20]: 90
- Plant response rating, Waterhemp [4, 21]: 85
- Plant response rating, Waterhemp [4, 22]: 95
- Waterhemp plant response rating [4, 23]: 98
- Waterhemp plant response rating [4, 24]: 80
- Plant response rating, Galium [5, 18]: 90
- Galium plant response rating [5, 19]: 95
- Plant response rating, Galium [5, 16]: 95
- Plant response rating, Galium [5, 20]: 90
- Plant response rating, Galium [5, 21]: 90
- Plant response rating, Galium [5, 22]: 90
- Galium plant response rating [5, 23]: 98
- Galium plant response rating [5, 24]: 95
- Plant response rating, Morningglory [6, 18]: 65
- Morningglory plant response rating [6, 19]: 80
- Plant response rating, Morningglory [6, 16]: 98
- Plant response rating, Morningglory [6, 20]: 40
- Plant response rating, Morningglory [6, 21]: 65
- Plant response rating, Morningglory [6, 22]: 95
- Morningglory plant response rating [6, 23]: 90
- Morningglory plant response rating [6, 24]: 95
- Plant response rating, Soybean (soybean (Glycine max); [18]): 0
- Soybean plant response rating (soybean (Glycine max); [19]): 0
- Plant response rating, Soybean (soybean (Glycine max); [16]): 20
- Plant response rating, Soybean (soybean (Glycine max); [20]): 0
- Plant response rating, Soybean (soybean (Glycine max); [21]): 0
- Plant response rating, Soybean (soybean (Glycine max); [22]): 0
- Soybean plant response rating (soybean (Glycine max); [23]): 0
- Soybean plant response rating (soybean (Glycine max); [24]): 0
- Plant response rating, Corn (corn (Zea mays); [18]): 0
- Corn plant response rating (corn (Zea mays); [19]): 5
- Plant response rating, Corn (corn (Zea mays); [16]): 10
- Plant response rating, Corn (corn (Zea mays); [20]): 0
- Plant response rating, Corn (corn (Zea mays); [21]): 0
- Plant response rating, Corn (corn (Zea mays); [22]): 0
- Corn plant response rating (corn (Zea mays); [23]): 10
- Corn plant response rating (corn (Zea mays); [24]): 5
- Plant response rating, Velvetleaf [7, 18]: 30
- Velvetleaf plant response rating [7, 19]: 40
- Plant response rating, Velvetleaf [7, 16]: 75
- Plant response rating, Velvetleaf [7, 20]: 60
- Plant response rating, Velvetleaf [7, 21]: 60
- Plant response rating, Velvetleaf [7, 22]: 90
- Velvetleaf plant response rating [7, 23]: 95
- Velvetleaf plant response rating [7, 24]: 65
- Plant response rating, Barnyardgrass [8, 18]: 15
- Barnyardgrass plant response rating [8, 19]: 30
- Plant response rating, Barnyardgrass [8, 15]: 25
- Plant response rating, Barnyardgrass [8, 16]: 25
- Plant response rating, Barnyardgrass [8, 20]: 0
- Plant response rating, Barnyardgrass [8, 21]: 5
- Plant response rating, Barnyardgrass [8, 22]: 35
- Barnyardgrass plant response rating [8, 23]: 45
- Plant response rating, Pigweed [9, 18]: 50
- Pigweed plant response rating [9, 19]: 55
- Plant response rating, Pigweed [9, 16]: 65
- Plant response rating, Pigweed [9, 20]: 100
- Plant response rating, Pigweed [9, 21]: 100
- Plant response rating, Pigweed [9, 22]: 100
- Pigweed plant response rating [9, 23]: 100
- Pigweed plant response rating [9, 24]: 70
- Plant response rating, Ryegrass, Italian [10, 18]: 80
- Ryegrass, Italian plant response rating [10, 19]: 85
- Plant response rating, Ryegrass, Italian [10, 16]: 95
- Plant response rating, Ryegrass, Italian [10, 20]: 45
- Plant response rating, Ryegrass, Italian [10, 21]: 90
- Plant response rating, Ryegrass, Italian [10, 22]: 95
- Ryegrass, Italian plant response rating [10, 23]: 95
- Ryegrass, Italian plant response rating [10, 24]: 95
- Plant response rating, Crabgrass, Large [11, 18]: 15
- Crabgrass, Large plant response rating [11, 19]: 15
- Plant response rating, Crabgrass, Large [11, 16]: 25
- Plant response rating, Crabgrass, Large [11, 20]: 0
- Plant response rating, Crabgrass, Large [11, 21]: 0
- Plant response rating, Crabgrass, Large [11, 22]: 10
- Crabgrass, Large plant response rating [11, 23]: 40
- Crabgrass, Large plant response rating [11, 24]: 10
- Plant response rating, Wheat [12, 18]: 0
- Wheat plant response rating [12, 19]: 0
- Plant response rating, Wheat [12, 16]: 0
- Plant response rating, Wheat [12, 20]: 25
- Plant response rating, Wheat [12, 21]: 40
- Plant response rating, Wheat [12, 22]: 20
- Wheat plant response rating [12, 23]: 50
- Wheat plant response rating [12, 24]: 0
- Plant response rating, Blackgrass [13, 18]: 5
- Blackgrass plant response rating [13, 19]: 5
- Plant response rating, Blackgrass [13, 16]: 45
- Plant response rating, Blackgrass [13, 20]: 20
- Plant response rating, Blackgrass [13, 21]: 45
- Plant response rating, Blackgrass [13, 22]: 40
- Blackgrass plant response rating [13, 23]: 50
- Blackgrass plant response rating [13, 24]: 25
